Assay results taken from US8889696B2, “Substituted pyrido[2,3-d]pyrimidin-7(8H)-ones and therapeutic uses thereof” (Temple University—Of The Commonwealth System Of Higher …, priority 2009, dated 2014).
pIC50: −log10 of the molar value.

Tests used:
[1] = tested on: K562 (chronic myelogenous leukemia); test: Effect on tumor cell lines (Latham assay), K562; type: cell-based; settings: Homo sapiens; K562 cells, examined 96 hours after treatment; read-out: Potencies (IC50) K 562
Protocol: (§1) The plated cells were treated 24 hours later with a compound of the invention dissolved in DMSO at multiple concentrations ranging from 0.01 μM to 100 μM. […] When necessary, the total number of viable cells was determined by trypsinizing the wells and counting the number of viable cells, as determined by trypan blue exclusion, using a hemacytometer.

[2] = tested on: DU145 (prostate cancer); test: Effect on tumor cell lines (Latham assay), DU145; type: cell-based; settings: Homo sapiens, DU-145; DU145 cells, examined 96 hours after treatment; read-out: Potencies (IC50) DU 145
Protocol: as §1

SMILES | pIC50 [1] | pIC50 [2] | melting point [°C]
Cn1c(=O)c(S(=O)(=O)c2ccc(Cl)cc2)cc2cnc(Nc3ccc(Cl)cc3)nc21 [Example 3, 2-(4-chlorophenylamino)-6-(4-chlorophenylsulfonyl)-8-methylpyrido[2,3-d]pyrimidin-7(8H)-one] | 4.60 to 5.00 | 4.60 to 5.00 | > 300
COc1ccc(Nc2ncc3cc(S(=O)(=O)c4ccc(Cl)cc4)c(=O)n(C)c3n2)cc1 [Example 4, 6-(4-chlorophenylsulfonyl)-2-(4-methoxyphenylamino)-8-methylpyrido[2,3-d]pyrimidin-7(8H)-one] | 4.60 to 5.00 | 4.30 to 4.60 | 286 to 290
Cn1c(=O)c(S(=O)(=O)c2ccc(Cl)cc2)cc2cnc(Nc3cnc4ccccc4c3)nc21 [Example 5, 6-(4-chlorophenylsulfonyl)-8-methyl-2-(quinolin-3-ylamino)pyrido[2,3-d]pyrimidin-7(8H)-one] | 4.60 to 5.00 | 4.60 to 5.00 | 304 to 306
Cn1c(=O)c(S(=O)(=O)c2ccc(Cl)cc2)cc2cnc(Nc3ccc4[nH]ccc4c3)nc21 [Example 6, 2-(1H-indol-5-ylamino)-6-(4-chlorophenylsulfonyl)-8-methylpyrido[2,3-d]pyrimidin-7(8H)-one] | > 6.00 | > 6.00 | 316 to 320
Cn1c(=O)c(S(=O)(=O)c2ccc(Cl)cc2)cc2cnc(NCCCN3CCOCC3)nc21 [Example 7, 2-(3-morpholinopropylamino)-6-(4-chlorophenylsulfonyl)-8-methylpyrido[2,3-d]pyrimidin-7(8H)-one] | 4.30 to 4.60 | 4.30 to 4.60 | 160 to 164
CC(=O)N1CCN(c2ncc3cc(S(=O)(=O)c4ccc(Cl)cc4)c(=O)n(C)c3n2)CC1 [Example 8, 6-(4-chlorophenylsulfonyl)-2-(4-acetylpiperazin-1-yl)-8-methylpyrido[2,3-d]pyrimidin-7(8H)-one] | 4.00 to 4.30 | 4.00 to 4.30 | 264 to 268
CN1CCN(CCNc2ncc3cc(S(=O)(=O)c4ccc(Cl)cc4)c(=O)n(C)c3n2)CC1 [Example 9, 2-(2-(4-methylpiperazin-1-yl)ethylamino)-6-(4-chlorophenylsulfonyl)-8-methylpyrido[2,3-d]pyrimidin-7(8H)-one] | 4.60 to 5.00 | 4.30 to 4.60 | 176 to 180
Cn1c(=O)c(S(=O)(=O)c2ccc(F)cc2)cc2cnc(Nc3cccc4[nH]ccc34)nc21 [Example 10, 2-(1H-indol-4-ylamino)-6-(4-fluorophenylsulfonyl)-8-methylpyrido[2,3-d]pyrimidin-7(8H)-one] | > 6.00 | > 6.00 | > 350
Cn1c(=O)c(S(=O)(=O)c2ccc(F)cc2)cc2cnc(Nc3ccc4[nH]ccc4c3)nc21 [Example 11] | > 6.00 | > 6.00 | 278 to 282
Cn1c(=O)c(S(=O)(=O)c2ccc(F)cc2)cc2cnc(Nc3ccc4[nH]ncc4c3)nc21 [Example 13, 2-(1H-indazol-5-ylamino)-6-(4-fluorophenylsulfonyl)-8-methylpyrido[2,3-d]pyrimidin-7(8H)-one] | 5.00 to 6.00 | 5.00 to 6.00 | 160 to 165
Cc1ccc(S(=O)(=O)c2cc3cnc(Nc4cccc5cccnc45)nc3n(C)c2=O)cc1 [Example 14, 8-methyl-2-(quinolin-8-ylamino)-6-tosylpyrido[2,3-d]pyrimidin-7(8H)-one] | 4.60 to 5.00 | 4.60 to 5.00 | > 350
Cc1ccc(S(=O)(=O)c2cc3cnc(Nc4ccc5ncccc5c4)nc3n(C)c2=O)cc1 [Example 15, 8-methyl-2-(quinolin-6-ylamino)-6-tosylpyrido[2,3-]pyrimidin-7(8H)-one] | 4.60 to 5.00 | 4.60 to 5.00 | 325 to 330
Cc1ccc(S(=O)(=O)c2cc3cnc(Nc4cccc5[nH]ccc45)nc3n(C)c2=O)cc1 [Example 16, 2-(1H-indol-4-ylamino)-8-methyl-6-tosylpyrido[2,3-d]pyrimidin-7(8H)-one] | 5.00 to 6.00 | 5.00 to 6.00 | 295 to 300
Cc1ccc(S(=O)(=O)c2cc3cnc(Nc4ccc5[nH]ccc5c4)nc3n(C)c2=O)cc1 [Example 17, 2-(1H-indol-5-ylamino)-8-methyl-6-tosylpyrido[2,3-d]pyrimidin-7(8H)-one] | > 6.00 | > 6.00 | 310 to 314
Cn1c(=O)c(S(=O)(=O)c2ccc(Br)cc2)cc2cnc(Nc3ccc4[nH]ccc4c3)nc21 [Example 18, 2-(1H-indol-5-ylamino)-6-(4-bromophenylsulfonyl)-8-methylpyrido[2,3-d]pyrimidin-7(8H)-one] | 5.00 to 6.00 | 5.00 to 6.00 | 316 to 320
Cc1ccc(S(=O)(=O)c2cc3cnc(Nc4cnc5[nH]ccc5c4)nc3n(C)c2=O)cc1 [Example 19, 2-(1H-pyrrolo[2,3-b]pyridin-5-ylamino)-8-methyl-6-tosylpyrido[2,3-d]pyrimidin-7(8H)-one] | 5.00 to 6.00 | 5.00 to 6.00 | 252 to 255

SMILES | pIC50 [1] | pIC50 [2] | melting point [°C]
COc1ccc(Nc2ncc3cc(S(=O)(=O)c4ccc(C)cc4)c(=O)n(C)c3n2)cc1 [Example 20, 2-(4-methoxyphenylamino)-8-methyl-6-tosylpyrido[2,3-d]pyrimidin-7(8H)-one] | 4.00 to 4.30 | < 4.00 | 336 to 340
Cn1c(=O)c(S(=O)(=O)c2ccccc2)cc2cnc(Nc3ccc4[nH]ccc4c3)nc21 [Example 21, 2-(1H-indol-5-ylamino)-8-methyl-6-(phenylsulfonyl)pyrido[2,3-d]pyrimidin-7(8H)-one] | > 6.00 | 5.00 to 6.00 | 340 to 344
Cn1c(=O)c(S(=O)(=O)c2ccccc2)cc2cnc(Nc3cnc4[nH]ccc4c3)nc21 [Example 22, 2-(1H-pyrrolo[2,3-b]pyridin-5-ylamino)-8-methyl-6-(phenylsulfonyl)pyrido[2,3-d]pyrimidin-7(8H)-one] | > 6.00 | > 6.00 | 280 to 284
Cn1c(=O)c(S(=O)(=O)c2ccccc2)cc2cnc(Nc3ccc4ncccc4c3)nc21 [Example 23, 8-methyl-6-(phenylsulfonyl)-2-(quinolin-6-ylamino)pyrido[2,3-d]pyrimidin-7(8H)-one] | < 4.00 | 4.00 to 4.30 | 348 to 350
Cn1c(=O)c(S(=O)(=O)c2ccc(F)cc2)cc2cnc(Nc3ccc4cc[nH]c4c3)nc21 [Example 24, 2-(1H-indol-6-ylamino)-6-(4-fluorophenylsulfonyl)-8-methylpyrido[2,3-d]pyrimidin-7(8H)-one] | 4.30 to 4.60 | 4.30 to 4.60 | > 350
Cn1c(=O)c(S(=O)(=O)c2ccc(F)c(Cl)c2)cc2cnc(Nc3ccc4c(c3)CC(=O)N4)nc21 [Example 36, 2-(2-oxoindolin-5-ylamino)-6-(3-chloro-4-fluorophenylsulfonyl)-8-methylpyrido[2,3-d]pyrimidin-7(8H)-one] | 4.60 to 5.00 | 4.60 to 5.00 | 
Cn1c(=O)c(S(=O)(=O)c2ccc(F)c(Cl)c2)cc2cnc(Nc3ccc4[nH]ncc4c3)nc21 [Example 38, 2-(1H-indazol-5-ylamino)-6-(3-chloro-4-fluorophenylsulfonyl)-8-methylpyrido[2,3-d]pyrimidin-7(8H)-one] | 4.60 to 5.00 | 4.60 to 5.00 | 
Cn1c(=O)c(S(=O)(=O)c2ccc(F)cc2F)cc2cnc(Nc3ccc4c(c3)CC(=O)N4)nc21 [Example 41, 6-(2,4-difluorophenylsulfonyl)-2-(2-oxoindolin-5-ylamino)-8-methylpyrido[2,3-d]pyrimidin-7(8H)-one] | 4.00 to 4.30 | 4.00 to 4.30 | 
Cn1c(=O)c(S(=O)(=O)c2ccc(F)cc2F)cc2cnc(NCCN3CCOCC3)nc21 [Example 42, 6-(2,4-difluorophenylsulfonyl)-2-(2-morpholinoethylamino)-8-methylpyrido[2,3-d]pyrimidin-7(8H)-one] | 4.00 to 4.30 | 4.00 to 4.30 | 
Cn1c(=O)c(S(=O)(=O)c2ccc(O)cc2)cc2cnc(Nc3ccc4[nH]ccc4c3)nc21 [Example 43, 2-(1H-indol-5-ylamino)-6-(4-hydroxyphenylsulfonyl)-8-methylpyrido[2,3-d]pyrimidin-7(8H)-one] | > 6.00 | > 6.00 | 
O=c1[nH]c2nc(Nc3ccc4[nH]ccc4c3)ncc2cc1S(=O)(=O)c1ccc(F)c(Cl)c1 [Example 46, 2-(1H-indol-5-ylamino)-6-(3-chloro-4-fluorophenylsulfonyl)pyrido[2,3-d]pyrimidin-7(8H)-one] | 4.60 to 5.00 | 4.00 to 4.30 | 
CN1CCN(c2ccc(Nc3ncc4cc(S(=O)(=O)c5ccc(Cl)cc5)c(=O)n(C5CCCC5)c4n3)cc2)CC1 [Example 58, 2-(4-(4-methylpiperazin-1-yl)phenylamine)-6-(4-chlorophenylsulfonyl)-8-cyclopentylpyrido[2,3-d]pyrimidin-7(8H)-one] | 5.00 to 6.00 | 4.60 to 5.00 | 
C[S+]([O-])c1ncc2cc(S(=O)(=O)c3ccc(Cl)cc3)c(=O)n(C3CCCC3)c2n1 (centres unmarked) [Example 59, 6-(4-chlorophenylsulfonyl)-8-cyclopentyl-2-(methylsulfinyl)pyrido[2,3-d]pyrimidin-7(8H)-one] | 5.00 to 6.00 | 4.60 to 5.00 | 
CN1CCN(c2ccc(Nc3ncc4cc(S(=O)(=O)c5ccccc5)c(=O)n(C5CCCC5)c4n3)cc2)CC1 [Example 64, 2-(4-(4-methylpiperazin-1-yl)phenylamino)-8-cyclopentyl-6-(phenylsulfonyl)pyrido[2,3-d]pyrimidin-7(8H)-one] | 5.00 to 6.00 | > 6.00 | 
C[S+]([O-])c1ncc2cc(S(=O)(=O)c3ccccc3)c(=O)n(C3CCCC3)c2n1 (centres unmarked) [Example 66, 8-cyclopentyl-2-(methylsulfinyl)-6-(phenylsulfonyl)pyrido[2,3-d]pyrimidin-7(8H)-one] | 4.60 to 5.00 | 4.00 to 4.30 | 
